Among the data in US20230365592A1 (Agios Pharmaceuticals, Inc., priority 2022, published 2023) are AC50 values, retold here.

The experiment deals with T1, human PAH with the R408W mutation (Homo sapiens, UniProt P00439, R408W).
T1 construct: expressed in transfected cells
T1 sequence (P00439 1-452 R408W): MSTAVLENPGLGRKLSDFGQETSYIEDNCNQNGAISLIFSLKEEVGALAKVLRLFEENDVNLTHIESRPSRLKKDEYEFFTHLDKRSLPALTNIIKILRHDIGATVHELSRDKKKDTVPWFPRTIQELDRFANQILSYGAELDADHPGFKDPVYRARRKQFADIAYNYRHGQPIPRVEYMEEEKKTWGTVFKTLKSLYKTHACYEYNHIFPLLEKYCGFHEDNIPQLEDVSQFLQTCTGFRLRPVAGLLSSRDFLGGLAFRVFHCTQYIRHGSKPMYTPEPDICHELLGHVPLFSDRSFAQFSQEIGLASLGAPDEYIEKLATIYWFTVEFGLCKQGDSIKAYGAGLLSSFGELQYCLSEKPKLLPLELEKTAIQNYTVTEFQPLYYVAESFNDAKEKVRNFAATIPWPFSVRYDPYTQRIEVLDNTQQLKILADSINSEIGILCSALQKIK
The experiment can be described thus: Cell Based Phenylalanine Flux Assay.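 Note: after compound treatment, cells received sepiapterin plus isotope-labelled Phenylalanine for 4 hours, then labelled Tyrosine in the medium was quantified, 10-point 2-fold dilution series run in duplicate.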 The note with it: A375 cells expressing human R408W PAH; 24 hrs compound incubation; 13C-Tyrosine by LC-MS; average where tested multiple times; read-out: AC50.

Structures are written as SMILES.

`O=C(c1nnc(-c2ncccc2F)o1)N1CCc2[nH]cnc2[C@@H]1c1cc2c(OC(F)F)cccn2n1` [Example 1656, (R)-(4-(4-(difluoromethoxy)pyrazolo[1,5-a]pyridin-2-yl)-6,7-dihydro-1H-imidazo[4,5-c]pyridin-5(4H)-yl)(5-(3-fluoropyridin-2-yl)-1,3,4-oxadiazol-2-yl)methanone]: the AC50 is over 5 µM.

Consider `O=C(c1nnc(-c2ncccc2F)o1)N1CCc2[nH]cnc2[C@H]1c1cc2c(OC(F)F)cccn2n1` [Example 1657, (S)-(4-(4-(difluoromethoxy)pyrazolo[1,5-a]pyridin-2-yl)-6,7-dihydro-1H-imidazo[4,5-c]pyridin-5(4H)-yl)(5-(3-fluoropyridin-2-yl)-1,3,4-oxadiazol-2-yl)methanone], for which the half-maximal activity concentration (AC50) was 0.5 to 1 µM.

As for `Cc1c(-c2nnc(C(=O)N3CCc4[nH]cnc4[C@H]3c3cc4c(OC(F)F)cccn4n3)o2)cnn1C` [Example 1658, (S)-(4-(4-(difluoromethoxy)pyrazolo[1,5-a]pyridin-2-yl)-6,7-dihydro-1H-imidazo[4,5-c]pyridin-5(4H)-yl)(5-(1,5-dimethyl-1H-pyrazol-4-yl)-1,3,4-oxadiazol-2-yl)methanone], the AC50 is 0.5 to 1 µM.

Consider `O=C(c1nnc(-c2cnn(C(F)F)c2)o1)N1CCc2[nH]cnc2[C@H]1c1cc2c(OC(F)F)cccn2n1` [Example 1660, (S)-(4-(4-(difluoromethoxy)pyrazolo[1,5-a]pyridin-2-yl)-6,7-dihydro-1H-imidazo[4,5-c]pyridin-5(4H)-yl)(5-(1-(difluoromethyl)-1H-pyrazol-4-yl)-1,3,4-oxadiazol-2-yl)methanone], for which the concentration at half-maximal activity (AC50) lay in the range of 0.5 to 1 µM.

`O=C(c1nnc(-c2ccn(C(F)F)n2)o1)N1CCc2[nH]cnc2[C@H]1c1cc2c(OC(F)F)cccn2n1` [Example 1662, (S)-(4-(4-(difluoromethoxy)pyrazolo[1,5-a]pyridin-2-yl)-6,7-dihydro-1H-imidazo[4,5-c]pyridin-5(4H)-yl)(5-(1-(difluoromethyl)-1H-pyrazol-3-yl)-1,3,4-oxadiazol-2-yl)methanone]: the half-maximal activity concentration (AC50) is 0.5 to 1 µM.

With `O=C(c1nnc(-c2ccn(C(F)F)n2)o1)N1CCc2[nH]cnc2[C@@H]1c1cc2c(OC(F)F)cccn2n1` [Example 1663, (R)-(4-(4-(difluoromethoxy)pyrazolo[1,5-a]pyridin-2-yl)-6,7-dihydro-1H-imidazo[4,5-c]pyridin-5(4H)-yl)(5-(1-(difluoromethyl)-1H-pyrazol-3-yl)-1,3,4-oxadiazol-2-yl)methanone], the concentration at half-maximal activity (AC50) is over 5 µM.

As for `Clc1cccn2nc([C@@H]3c4nc[nH]c4CCN3c3ncccn3)cc12` [Example 1664, (S)4-(4-chloropyrazolo[1,5-a]pyridin-2-yl)-5-(pyrimidin-2-yl)-4,5,6,7-tetrahydro-1H-imidazo[4,5-c]pyridine], the AC50 is under 0.5 µM.

Turning to `Clc1cccn2nc([C@H]3c4nc[nH]c4CCN3c3ncccn3)cc12` [Example 1665, (R)-4-(4-chloropyrazolo[1,5-a]pyridin-2-yl)-5-(pyrimidin-2-yl)-4,5,6,7-tetrahydro-1H-imidazo[4,5-c]pyridine], the half-maximal activity concentration (AC50) was 1 to 5 µM.

In the case of `Cc1ccc2c(C(=O)N3CCc4[nH]cnc4[C@@H]3c3cc4c(C(F)(F)F)cccn4n3)cnn2c1` [Example 1667, (R)-(6-methylpyrazolo[1,5-a]pyridin-3-yl)(4-(4-(trifluoromethyl)pyrazolo[1,5-a]pyridin-2-yl)-6,7-dihydro-1H-imidazo[4,5-c]pyridin-5(4H)-yl)methanone], the AC50 is over 5 µM.

`Cc1ccc2c(C(=O)N3CCc4[nH]cnc4[C@@H]3c3cc4c(C)cccn4n3)cnn2c1` [Example 1669, (R)-(4-(4-methylpyrazolo[1,5-a]pyridin-2-yl)-6,7-dihydro-1H-imidazo[4,5-c]pyridin-5(4H)-yl)(6-methylpyrazolo[1,5-a]pyridin-3-yl)methanone]: the AC50 was over 5 µM.

In the case of `Cc1ccc2c(C(=O)N3CCc4[nH]cnc4[C@H]3c3cc4c(F)cccn4n3)cnn2c1` [Example 1670, (S)-(4-(4-fluoropyrazolo[1,5-a]pyridin-2-yl)-6,7-dihydro-1H-imidazo[4,5-c]pyridin-5(4H)-yl)(6-methylpyrazolo[1,5-a]pyridin-3-yl)methanone], the AC50 was 0.5 to 1 µM.

In the case of `O=C(c1cnn2cc(C3CC3)ccc12)N1CCc2[nH]cnc2[C@H]1c1cc2c(F)cccn2n1` [Example 1672, (S)-(6-cyclopropylpyrazolo[1,5-a]pyridin-3-yl)(4-(4-fluoropyrazolo[1,5-a]pyridin-2-yl)-6,7-dihydro-1H-imidazo[4,5-c]pyridin-5(4H)-yl)methanone], the concentration at half-maximal activity (AC50) is under 0.5 µM.

With `COc1ccc2c(C(=O)N3CCc4[nH]cnc4[C@H]3c3cc4c(C(F)(F)F)cccn4n3)cnn2c1` [Example 1674, (S)-(6-methoxypyrazolo[1,5-a]pyridin-3-yl)(4-(4-(trifluoromethyl)pyrazolo[1,5-a]pyridin-2-yl)-6,7-dihydro-1H-imidazo[4,5-c]pyridin-5(4H)-yl)methanone], the AC50 lay within 0.5 to 1 µM.

Take `COc1ccc2c(C(=O)N3CCc4[nH]cnc4[C@H]3c3cc4c(C(F)F)cccn4n3)cnn2c1` [Example 1676, (S)-(4-(4-(difluoromethyl)pyrazolo[1,5-a]pyridin-2-yl)-6,7-dihydro-1H-imidazo[4,5-c]pyridin-5(4H)-yl)(6-methoxypyrazolo[1,5-a]pyridin-3-yl)methanone]: the AC50 was 0.5 to 1 µM.

`COc1ccc2c(C(=O)N3CCc4[nH]cnc4[C@@H]3c3cc4c(C(F)F)cccn4n3)cnn2c1` [Example 1677, (R)-(4-(4-(difluoromethyl)pyrazolo[1,5-a]pyridin-2-yl)-6,7-dihydro-1H-imidazo[4,5-c]pyridin-5(4H)-yl)(6-methoxypyrazolo[1,5-a]pyridin-3-yl)methanone]: the concentration at half-maximal activity (AC50) was over 5 µM.

For the molecule `O=C(c1nnc(-c2ncccc2F)o1)N1CCc2[nH]cnc2[C@@H]1c1cc2c(OC(F)(F)F)cccn2n1` [Example 1678, (R)-(5-(3-fluoropyridin-2-yl)-1,3,4-oxadiazol-2-yl)(4-(4-(trifluoromethoxy)pyrazolo[1,5-a]pyridin-2-yl)-6,7-dihydro-1H-imidazo[4,5-c]pyridin-5(4H)-yl)methanone], the half-maximal activity concentration (AC50) is over 5 µM.

As to `O=C(c1nnc(-c2ncccc2F)o1)N1CCc2[nH]cnc2[C@H]1c1cc2c(OC(F)(F)F)cccn2n1` [Example 1679, (S)-(5-(3-fluoropyridin-2-yl)-1,3,4-oxadiazol-2-yl)(4-(4-(trifluoromethoxy)pyrazolo[1,5-a]pyridin-2-yl)-6,7-dihydro-1H-imidazo[4,5-c]pyridin-5(4H)-yl)methanone], the half-maximal activity concentration (AC50) is under 0.5 µM.

Turning to `O=C(c1nnc(-c2cnccn2)o1)N1CCc2[nH]cnc2[C@H]1c1cc2c(OC(F)(F)F)cccn2n1` [Example 1680, (S)-(5-(pyrazin-2-yl)-1,3,4-oxadiazol-2-yl)(4-(4-(trifluoromethoxy)pyrazolo[1,5-a]pyridin-2-yl)-6,7-dihydro-1H-imidazo[4,5-c]pyridin-5(4H)-yl)methanone], the half-maximal activity concentration (AC50) lay in the range of 0.5 to 1 µM.

With `Cn1cc(-c2nnc(C(=O)N3CCc4[nH]cnc4[C@H]3c3cc4c(OC(F)(F)F)cccn4n3)o2)cn1` [Example 1682, (S)-(5-(1-methyl-1H-pyrazol-4-yl)-1,3,4-oxadiazol-2-yl)(4-(4-(trifluoromethoxy)pyrazolo[1,5-a]pyridin-2-yl)-6,7-dihydro-1H-imidazo[4,5-c]pyridin-5(4H)-yl)methanone], the half-maximal activity concentration (AC50) was under 0.5 µM.

As to `CC(C)(C)c1nnc(C(=O)N2CCc3[nH]cnc3[C@H]2c2cc3c(OC(F)F)cccn3n2)o1` [Example 1687, (S)-(5-(tert-butyl)-1,3,4-oxadiazol-2-yl)(4-(4-(difluoromethoxy)pyrazolo[1,5-a]pyridin-2-yl)-6,7-dihydro-1H-imidazo[4,5-c]pyridin-5(4H)-yl)methanone], the half-maximal activity concentration (AC50) is 0.5 to 1 µM.

On to `O=C(c1nnc(-c2ccccn2)o1)N1CCc2[nH]cnc2[C@H]1c1cc2c(OC(F)F)cccn2n1` [Example 1689, (S)-(4-(4-(difluoromethoxy)pyrazolo[1,5-a]pyridin-2-yl)-6,7-dihydro-1H-imidazo[4,5-c]pyridin-5(4H)-yl)(5-(pyridin-2-yl)-1,3,4-oxadiazol-2-yl)methanone], for which the concentration at half-maximal activity (AC50) is under 0.5 µM.

Consider `Cc1cccc2cc([C@@H]3c4nc[nH]c4CCN3C(=O)c3cnn4cc(CN(C)C)ccc34)nn12` [Example 1690, (S)-(6-((dimethylamino)methyl)pyrazolo[1,5-a]pyridin-3-yl)(4-(7-methylpyrazolo[1,5-a]pyridin-2-yl)-6,7-dihydro-1H-imidazo[4,5-c]pyridin-5(4H)-yl)methanone], for which the concentration at half-maximal activity (AC50) fell in the range of 0.5 to 1 µM.

`Cc1cccc2cc([C@H]3c4nc[nH]c4CCN3C(=O)c3cnn4cc(CN(C)C)ccc34)nn12` [Example 1691, (R)-(6-((dimethylamino)methyl)pyrazolo[1,5-a]pyridin-3-yl)(4-(7-methylpyrazolo[1,5-a]pyridin-2-yl)-6,7-dihydro-1H-imidazo[4,5-c]pyridin-5(4H)-yl)methanone]: the AC50 was over 5 µM.

Consider `FC(F)(F)c1cccn2nc([C@@H]3c4nc[nH]c4CCN3c3ncccn3)cc12` [Example 1692, (S)-5-(pyrimidin-2-yl)-4-(4-(trifluoromethyl)pyrazolo[1,5-a]pyridin-2-yl)-4,5,6,7-tetrahydro-1H-imidazo[4,5-c]pyridine], for which the half-maximal activity concentration (AC50) was under 0.5 µM.

Broadly, the AC50 is the concentration at which the activity in the assay is half-maximal.
